Data on 2 molecules can be found in patent publication US20180078525A1, “COMPOSITION FOR GROWTH PROMOTION, CONTAINING COUMARIC ACID AS ACTIVE INGREDIENT” (KOREA MEDICINE RESEARCH INSTITUTE, INC, priority 2014, published 2018).

The test system of data set [1] is IGF-1. Kind of data set: IGF-1 protein levels in blood (IGF1 ELISA Kit). In kind it is in vivo. The following applies: rat serum, after 10-day administration; control group 0.84 mg/kg. The protocol:
(§1) In a control group, saline was injected. […] The drug administered to each group is as follows:
To confirm whether coumaric acid affects the secretion levels of IGF-1, […], IGF-1 protein levels were measured. In Experimental Example <1-1>, after the 10-day administration was completed, the rats of the experimental group and the control groups according to this invention were anesthetized on the day of the experiment, and then blood was extracted therefrom using a syringe and centrifuged to obtain serum. The measurement of the IGF-1 levels was carried out using an IGF1 ELISA Kit (Abcam, ab100695).

The test system of data set [2] is growth hormone. The experiment in a line: Growth hormone levels in blood (Growth Hormone Rat ELISA Kit). In kind it is in vivo. The note with it: rat serum, after 10-day administration; control group 3.97 ng/ml. On the procedure: as §1
To confirm whether coumaric acid affects the secretion level of the growth hormone, a growth hormone level in the blood of each rat was measured. […] The measurement of the growth hormone levels were carried out using a Growth Hormone Rat ELISA Kit (Life Technologies, KRC5311).

Data set [3] in a line: Changes in the body weight of laboratory animals. The following applies: male Sprague-Dawley rats, 10-day administration; coumaric acid 100 mg/kg oral, growth hormone 20 μg/kg s.c., once daily.
Method: Three-week-old male Sprague-Dawley rats were purchased and acclimated for three days. A breeding environment was altered to a 24-hour pattern, a light/dark cycle was maintained at 12-hour intervals, and antibiotic-free normal solid feed was used. In a control group, saline was injected. In a positive control group, Eutropin Injection (LG Bioscience Korea) was subcutaneously injected at a dose of 20 μg/kg once a day. The coumaric acid of this invention was administered to the oral cavity of all rats of a coumaric acid group, once daily.
After feeding and administering the coumaric acid to the rats for 10 days, autopsies were carried out to confirm the following content.
The measurement was carried out twice a week. The measured values were statistically analyzed to calculate mean±standard deviation.
Data set [4] concerns Sprague-Dawley rats. The experiment in a line: Analysis of growth plate (heights of proliferative and hypertrophic zones). Format: in vivo, rat. The note with it: after 10-day administration; for height of the proliferative zone of the growth plate: average, control group 0.77 mm; for height of the hypertrophic zone of the growth plate: control group 1.10 mm. On the procedure:
In a control group, saline was injected. […] To assess the growth effect of coumaric acid, the growth plate of each rat was analyzed. In Experimental Example <1-1>, after the 10-day administration was completed, right and left tibias (shinbones) were extracted from the experimental group and the control groups according to this invention, all the muscles, fat and ligaments attached to bone tissue were removed, and then the resulting specimen was stored in 70% alcohol, demineralized, and then dehydrated. Afterward, the resulting specimen was washed with xylene, and then put into a paraffin block. Subsequently, the specimen was cut to a thickness of 4 μm, and then the heights of the proliferative zone and the hypertrophic zone in the growth plate were measured using a BX50 microscope (Olympus).

Data set [5] has as its system cartilage cells. The experiment in a line: Proliferation of cartilage cells in proximal tibia (BrdU staining). Format: in vivo, rat. The note with it: rats, after 10-day administration, BrdU 30 mg/kg i.p., 2 hours before autopsy; control group 0.13%. On the procedure:
as §1
To confirm whether the effect of coumaric acid on bone growth is caused by the proliferation of cartilage cells, cartilage cells were observed. In Experimental Example <1-1>, after the 10-day administration was completed, rats of the experimental group and the control groups according to this invention were intraperitoneally administered with a dose of 30 mg/kg of 5-bromo-2′-deoxyuridine (BrdU) on the day of the experiment. Two hours later, autopsies were carried out to extract legs, and then the legs were stored in 4% PFA for 24 hours. Following embedding and sectioning, cartilage cells which were stained using a BrdU staining kit (Invitrogen, Carlsbad, Calif., USA) were observed.
(In general: Uptake of a labelled nucleoside into DNA is a usual measure of proliferation.)

Data set [6] relates to Sprague-Dawley rats. Kind of data set: Total tibial length by X-ray radiography. Format: in vivo, rat. The note with it: after 10-day administration, coumaric acid 100 mg/kg oral, growth hormone 20 μg/kg s.c. The protocol: as §1
To assess the effect of coumaric acid on growth promotion, total tibial length of rats were measured. In Experimental Example <1-1>, after the 10-day administration was completed, right and left tibias (shinbones) were extracted from the control groups and the coumaric acid-fed experimental group according to this invention, all the muscles, fat and ligaments attached to bone tissue were removed, and then the resulting specimen was stored in 70% alcohol, followed by radiographic analysis using an X-ray imaging instrument (OM-FORTE-10121, DK Medical Systems). For the analysis, 55 kV, […] X-ray sources were used. The total tibial length was measured by X-ray radiography.

As for `O=C(O)/C=C/c1ccc(O)cc1` [coumaric acid], in data set [1], the IGF-1 protein level is 1.23 mg/kg. Also, the “growth hormone level in blood” value in data set [2] came to 7.62 ng/mL. Also, the “body weight vs control group” value in data set [3] is listed as “almost no difference”. In data set [4], the “height of the proliferative zone of the growth plate” value amounted to 0.98 mm and the “height of the hypertrophic zone of the growth plate” value was 1.27 mm. The “ratio of BrdU-labeled cells with respect to total cells” value in data set [5] is on record as 0.18%.
On to “growth hormone: positive control: Eutropin Injection (LG Bioscience Korea), growth hormone, subcutaneously injected at 20 μg/kg once a day”, for which the IGF-1 protein level in data set [1] came to 1.31 mg/kg. Further, the “growth hormone level in blood” value in data set [2] worked out at 11.89 ng/mL. Also, in data set [4], the “height of the proliferative zone of the growth plate” value is given as 1.13 mm and the “height of the hypertrophic zone of the growth plate” value is 1.44 mm. Besides, the “total tibial length vs control group” value in data set [6] is “greater than the control group”. Besides, the “ratio of BrdU-labeled cells with respect to total cells” value in data set [5] came out at 0.18%.
